{"source": "patent US5880258A", "about": "(dated 1999)", "key": {"[1]": {"biological_target": "T1, thrombin (Homo sapiens, UniProt P00734)", "assay": "anti-thrombin activity; chromogenic assay (Chromozym TH hydrolysis, apparent dissociation constant Ki')", "type": "biochemical", "parameters": "100 μl of human-thrombin prepared at 10 NIH units/ml in aforesaid buffer", "conditions": "for Ki: apparent dissociation constant, 350 pM human-thrombin, 100 μM Chromozym TH, 37° C.; for Potency: relative to hirudin HV-1 = 1", "description": "Anti-thrombin activities were measured by measuring the degree of inhibition of thrombin's hydrolytic activity on synthetic substrate Chromozym TH (Tocylglycil-prolylarginine-4-nitroanilideacetate). This reaction was carried out as follows. […] Here, the molar concentration of aforementioned human-thrombin was determined by the method of active site titration [G. W. Jameson et al., Biochem. J., 131, p107-117 (1973)] using 4-methylunberifenyl-p-guanidinobenzoate as substrate. After the pre-incubation, Chromozym TH (product of Boehringer-Mannheim) was added to a final concentration of 100 μM, and released p-nitroanilide was measured at the wave length of 405 nm, and the initial velocity of the hydrolytic reactions were measured for each of the abovementioned hirudins at various concentrations. From this initial velocity of the hydrolytic reactions, the apparent dissociation constants Ki' were calculated by the method of S. R. Stone et al. [Biochemistry, 25, p4622-4628 (1986)]."}, "[2]": {"biological_target": "T1, thrombin", "assay": "anti-thrombin activity; clotting assay (coagulation time with fibrinogen as substrate)", "type": "biochemical", "parameters": "100 μl of human-thrombin prepared at 10 NIH units/ml in aforesaid buffer", "conditions": "for IC50: concentration corresponding to 50 thrombin units, human-thrombin 10 NIH units/ml, human-fibrinogen 6 mg/ml, read-out: 50% Inhibition Concentration (converted); for Potency: calculated using the definition that HV-1 (54-65) potency is 1", "description": "Measurement of anti-thrombin activity was done by looking at anti-coagulant activity as an index using fibrinogen as the substrate. That is, the compounds were dossolved in 200 μl of 0.1 mM Tris-HCl buffer (pH7.5) containing 0.1% polyethyleneglycol-6000, 100 μl of human-thrombin prepared at 10 NIH units/ml in aforesaid buffer, were added 200 μl of human-fibrinogen (Sigma) prepared at 6 mg/ml in aforesaid tris-hydrochloride buffer were added, and the coagulation time of the reaction mixtures were measured. For measuring of coagulation times, coagulation time analyzer (Amelung KC10A) was used. Obtained values were converted into units by using a previously prepared thrombin standard curve. Graphs were prepared by plotting the converted values on the vertical axis, and the concentrations of the compounds on the horizontal axis. In the graphs, the thrombin unit was defined as 100 at a compound concentration of 0. The concentration of compounds corresponding to 50 units were defined as 50% inhibitory concentrations of compounds."}}, "note": "*1 amine or outer side, *2 acyl side, *3 side chain or, on linkers, in order; H or OH if unused. Where a SMILES comes first, the peptide text is derived from it. [ ]: non-standard residue; d: D form. sY = N[C@@H](Cc1ccc(OS(=O)(=O)O)cc1)C(=O)O; Asu = N[C@@H](CCCCCC(=O)O)C(=O)O; Suc = O=C(CCC(=O)[*:2])[*:1]; βAla = NCCC(=O)O"}
{"compound": "Val--Val--Tyr--Thr--Asp--Cys--Thr--Glu--Ser--Gly--Gln--Asn--Leu--Cys--Leu--Cys--Glu--Gly--Ser--Asn--Val--Cys--Gly--Gln--Gly--Asn--Lys--Cys--Ile--Leu--Gly--Ser--Asp--Gly--Glu--Lys--Asn--Gln--Cys--Val--Thr--Gly--Glu--Gly--Thr--Pro--Lys--Pro--Gln--Ser--His--Asn--Asp--Gly--Asp--Phe--Glu--Glu--Ile--Pro--Tyr--Tyr(SO3 H)--Tyr(SO3 H)--Leu--Gln [Sulfated form of hirudin HV-17 peak 1]", "values": [{"measurement": "Ki", "setting": "[1]", "result": 0.0028, "unit": "nM"}, {"measurement": "Potency", "setting": "[1]", "result": 2.3}]}
{"compound": "Val--Val--Tyr--Thr--Asp--Cys--Thr--Glu--Ser--Gly--Gln--Asn--Leu--Cys--Leu--Cys--Glu--Gly--Ser--Asn--Val--Cys--Gly--Gln--Gly--Asn--Lys--Cys--Ile--Leu--Gly--Ser--Asp--Gly--Glu--Lys--Asn--Gln--Cys--Val--Thr--Gly--Glu--Gly--Thr--Pro--Lys--Pro--Gln--Ser--His--Asn--Asp--Gly--Asp--Phe--Glu--Glu--Ile--Pro--Tyr--Tyr(SO3 H)--Tyr--Leu--Gln [Sulfated form of hirudin HV-17 peak 3]", "values": [{"measurement": "Ki", "setting": "[1]", "result": 0.0059, "unit": "nM"}, {"measurement": "Potency", "setting": "[1]", "result": 1.1}]}
{"compound": "Val--Val--Tyr--Thr--Asp--Cys--Thr--Glu--Ser--Gly--Gln--Asn--Leu--Cys--Leu--Cys--Glu--Gly--Ser--Asn--Val--Cys--Gly--Gln--Gly--Asn--Lys--Cys--Ile--Leu--Gly--Ser--Asp--Gly--Glu--Lys--Asn--Gln--Cys--Val--Thr--Gly--Glu--Gly--Thr--Pro--Lys--Pro--Gln--Ser--His--Asn--Asp--Gly--Asp--Phe--Glu--Glu--Ile--Pro--Tyr--Tyr--Tyr(SO3 H)--Leu--Gln [Sulfated form of hirudin HV-17 peak 2]", "values": [{"measurement": "Ki", "setting": "[1]", "result": 0.0043, "unit": "nM"}, {"measurement": "Potency", "setting": "[1]", "result": 1.5}]}
{"compound": "CC[C@H](C)[C@H](NC(=O)[C@@H]1CCCN1C(=O)[C@H](CCC(=O)O)NC(=O)[C@H](Cc1ccccc1)NC(=O)CCC(=O)O)C(=O)N1CCC[C@H]1C(=O)N[C@@H](CCC(=O)O)C(=O)N[C@@H](Cc1ccc(O)cc1)C(=O)N[C@@H](Cc1ccc(O)cc1)C(=O)N[C@@H](CC(C)C)C(=O)N[C@@H](CCCCCC(=O)OC)C(=O)OC", "note": "[(V)] (Suc-FEPIPEYYL[Asu](OMe)-OMe)", "values": [{"measurement": "IC50", "setting": "[2]", "result": 20700, "unit": "nM"}]}
{"compound": "CC[C@H](C)[C@H](NC(=O)[C@@H]1CCCN1C(=O)[C@H](CCC(=O)O)NC(=O)[C@H](Cc1ccccc1)NC(=O)[C@H](CC(=O)O)NC(=O)CCC(=O)O)C(=O)N1CCC[C@H]1C(=O)N[C@@H](CCC(=O)O)C(=O)N[C@@H](Cc1ccc(OS(=O)(=O)O)cc1)C(=O)N[C@@H](Cc1ccc(OS(=O)(=O)O)cc1)C(=O)N[C@@H](CC(C)C)C(=O)N[C@@H](CCC(N)=O)C(=O)O", "note": "[Sulfated form of (F), Suc--Asp--Phe--Glu--Pro--Ile--Pro--Glu--Tyr(SO3 H)--Tyr(SO3 H)--Leu--Gln--OH] (Suc-DFEPIPE[sY][sY]LQ-OH)", "values": [{"measurement": "Potency", "setting": "[2]", "result": 1.32}, {"measurement": "IC50", "setting": "[2]", "result": 3000, "unit": "nM"}]}
{"compound": "CC[C@H](C)[C@H](NC(=O)[C@H](CCC(=O)O)NC(=O)[C@H](CCC(=O)O)NC(=O)[C@H](Cc1ccccc1)NC(=O)[C@H](CC(=O)O)NC(=O)CN)C(=O)N1CCC[C@H]1C(=O)N[C@@H](CCC(=O)O)C(=O)N[C@@H](Cc1ccc(O)cc1)C(=O)N[C@@H](Cc1ccc(OS(=O)(=O)O)cc1)C(=O)N[C@@H](CC(C)C)C(=O)N[C@@H](CCC(N)=O)C(=O)O", "note": "[Sulfated form of (A), Gly--Asp--Phe--Glu--Glu--Ile--Pro--Glu--Tyr--Tyr(SO3 H)--Leu--Gln] (H-GDFEEIPEY[sY]LQ-OH)", "values": [{"measurement": "IC50", "setting": "[2]", "result": 2150, "unit": "nM"}]}
{"compound": "CC[C@H](C)[C@H](NC(=O)[C@@H]1CCCN1C(=O)[C@H](CCC(=O)O)NC(=O)[C@H](Cc1ccccc1)NC(=O)CCC(=O)O)C(=O)N1CCC[C@H]1C(=O)N[C@@H](CCC(=O)O)C(=O)N[C@@H](Cc1ccc(OS(=O)(=O)O)cc1)C(=O)N[C@@H](Cc1ccc(OS(=O)(=O)O)cc1)C(=O)N[C@@H](CC(C)C)C(=O)N[C@H](CCC(=O)O)C(=O)O", "note": "[Sulfated form of (T), Suc--Phe--Glu--Pro--Ile--Pro--Glu--Tyr(SO3 H)--Tyr(SO3 H)--Leu--(D)Glu--OH] (Suc-FEPIPE[sY][sY]L[dE]-OH)", "values": [{"measurement": "Potency", "setting": "[2]", "result": 8.32}, {"measurement": "IC50", "setting": "[2]", "result": 509, "unit": "nM"}]}
{"compound": "CC[C@H](C)[C@H](NC(=O)[C@@H]1CCCN1C(=O)[C@H](CCC(=O)O)NC(=O)[C@H](Cc1ccccc1)NC(=O)[C@H](CC(=O)O)NC(=O)CNC(=O)CCC(=O)O)C(=O)N1CCC[C@H]1C(=O)N[C@@H](CCC(=O)O)C(=O)N[C@@H](Cc1ccc(O)cc1)C(=O)N[C@@H](Cc1ccc(O)cc1)C(=O)N[C@@H](CC(C)C)C(=O)N[C@@H](CCC(N)=O)C(=O)O", "note": "[(C)] (Suc-GDFEPIPEYYLQ-OH)", "values": [{"measurement": "Potency", "setting": "[2]", "result": 1.76}, {"measurement": "IC50", "setting": "[2]", "result": 2390, "unit": "nM"}]}
{"compound": "CC[C@H](C)[C@H](NC(=O)[C@@H]1CCCN1C(=O)[C@H](CCC(=O)O)NC(=O)[C@H](Cc1ccccc1)NC(=O)CCC(=O)O)C(=O)N1CCC[C@H]1C(=O)N[C@@H](CCC(=O)O)C(=O)N[C@@H](Cc1ccc(O)cc1)C(=O)N[C@@H](Cc1ccc(O)cc1)C(=O)NCCC(=O)O", "note": "[(K)] (Suc-FEPIPEYY[βAla]-OH)", "values": [{"measurement": "IC50", "setting": "[2]", "result": 24600, "unit": "nM"}]}
{"compound": "CC[C@H](C)[C@H](NC(=O)[C@@H]1CCCN1C(=O)[C@H](CCC(=O)O)NC(=O)[C@H](Cc1ccccc1)NC(=O)CCC(=O)O)C(=O)N1CCC[C@H]1C(=O)N[C@@H](CCC(=O)O)C(=O)N[C@@H](Cc1ccc(OS(=O)(=O)O)cc1)C(=O)N[C@@H](Cc1ccc(OS(=O)(=O)O)cc1)C(=O)N[C@@H](CC(C)C)C(=O)O", "note": "[Sulfated form of (Q), Suc--Phe--Glu--Pro--Ile--Pro--Glu--Tyr (SO3 H)--Tyr(SO3 H)--Leu--OH] (Suc-FEPIPE[sY][sY]L-OH)", "values": [{"measurement": "Potency", "setting": "[2]", "result": 1.85}, {"measurement": "IC50", "setting": "[2]", "result": 2490, "unit": "nM"}]}
{"compound": "CC[C@H](C)[C@H](NC(=O)[C@@H]1CCCN1C(=O)[C@H](CCC(=O)O)NC(=O)CCC(=O)O)C(=O)N1CCC[C@H]1C(=O)N[C@@H](CCC(=O)O)C(=O)N[C@@H](Cc1ccc(OS(=O)(=O)O)cc1)C(=O)N[C@@H](Cc1ccc(OS(=O)(=O)O)cc1)C(=O)N[C@@H](CC(C)C)C(=O)N[C@@H](CCC(N)=O)C(=O)O", "note": "[Sulfated form of (H), Suc--Glu--Pro--Ile--Pro--Glu--Tyr(SO3 H)--Tyr(SO3 H)--Leu--Gln--OH] (Suc-EPIPE[sY][sY]LQ-OH)", "values": [{"measurement": "Potency", "setting": "[2]", "result": "< 0.05"}, {"measurement": "IC50", "setting": "[2]", "result": "> 142000", "unit": "nM"}]}
{"compound": "CC[C@H](C)[C@H](NC(=O)[C@H](CCC(=O)O)NC(=O)[C@H](CCC(=O)O)NC(=O)[C@H](Cc1ccccc1)NC(=O)[C@H](CC(=O)O)NC(=O)CN)C(=O)N1CCC[C@H]1C(=O)N[C@@H](Cc1ccc(O)cc1)C(=O)N[C@@H](Cc1ccc(O)cc1)C(=O)N[C@@H](Cc1ccc(OS(=O)(=O)O)cc1)C(=O)N[C@@H](CC(C)C)C(=O)N[C@@H](CCC(N)=O)C(=O)O", "note": "(single isomer, unassigned) [Sulfated form of (B) peak 3, Gly--Asp--Phe--Glu--Glu--Ile--Pro--Tyr--Tyr--Tyr(SO3 H)--Leu--Gln]", "values": [{"measurement": "IC50", "setting": "[2]", "result": 2490, "unit": "nM"}]}
{"compound": "CC[C@H](C)[C@H](NC(=O)[C@@H]1CCCN1C(=O)[C@H](CCC(=O)O)NC(=O)[C@H](Cc1ccccc1)NC(=O)CCC(=O)O)C(=O)N1CCC[C@H]1C(=O)N[C@@H](CCC(=O)O)C(=O)N[C@@H](Cc1ccc(OS(=O)(=O)O)cc1)C(=O)N[C@@H](Cc1ccc(OS(=O)(=O)O)cc1)C(=O)N[C@@H](CC(C)C)C(=O)N[C@@H](CCC(N)=O)C(=O)O", "note": "[Sulfated form of (G), Suc--Phe--Glu--Pro--Ile--Pro--Glu--Tyr(SO3 H)--Tyr(SO3 H)--Leu--Gln--OH] (Suc-FEPIPE[sY][sY]LQ-OH)", "values": [{"measurement": "Potency", "setting": "[2]", "result": 108.87}, {"measurement": "IC50", "setting": "[2]", "result": 38.9, "unit": "nM"}]}
